According to ChEMBL document CHEMBL1141234, “Synthesis and SAR of highly potent dual 5-HT1A and 5-HT1B antagonists as potential antidepressant drugs” (Bioorg Med Chem Lett, 2005):
Calls of active or inactive are those of the source. The rule behind the calls is not given here.

Legend:
Rattus norvegicus [1] = species: Rattus norvegicus; test: Electrically stimulated [3H]5-HT release from rat brain cortical slices at 0.1 uM; format: functional, tissue-based
D(3) dopamine receptor = D(3) dopamine receptor (Homo sapiens, UniProt P35462); test: Inhibitory activity against dopamine D3 receptor
D(3) dopamine receptor, sequence (P35462 whole entry): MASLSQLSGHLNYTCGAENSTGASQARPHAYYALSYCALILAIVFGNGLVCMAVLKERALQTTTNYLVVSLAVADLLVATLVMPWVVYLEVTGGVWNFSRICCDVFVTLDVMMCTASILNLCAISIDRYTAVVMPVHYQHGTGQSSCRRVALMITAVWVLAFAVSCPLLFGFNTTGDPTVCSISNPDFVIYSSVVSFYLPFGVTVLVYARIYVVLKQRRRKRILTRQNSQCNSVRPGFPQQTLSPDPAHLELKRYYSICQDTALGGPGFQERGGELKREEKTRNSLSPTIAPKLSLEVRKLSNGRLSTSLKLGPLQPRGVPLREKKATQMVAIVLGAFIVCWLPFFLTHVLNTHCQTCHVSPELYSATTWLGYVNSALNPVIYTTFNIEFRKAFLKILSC

[2] = Ratio of drug level in brain against plasma in rat; format: ADME, organism-based; conditions: read-out: BBR
[3] = target: T1, 5-hydroxytryptamine receptor 1A (Homo sapiens) (UniProt P08908); test: Intrinsic activity for 5HT1A receptor in [35S]GTP-gamma-S assay; format: functional
T1 sequence (whole entry): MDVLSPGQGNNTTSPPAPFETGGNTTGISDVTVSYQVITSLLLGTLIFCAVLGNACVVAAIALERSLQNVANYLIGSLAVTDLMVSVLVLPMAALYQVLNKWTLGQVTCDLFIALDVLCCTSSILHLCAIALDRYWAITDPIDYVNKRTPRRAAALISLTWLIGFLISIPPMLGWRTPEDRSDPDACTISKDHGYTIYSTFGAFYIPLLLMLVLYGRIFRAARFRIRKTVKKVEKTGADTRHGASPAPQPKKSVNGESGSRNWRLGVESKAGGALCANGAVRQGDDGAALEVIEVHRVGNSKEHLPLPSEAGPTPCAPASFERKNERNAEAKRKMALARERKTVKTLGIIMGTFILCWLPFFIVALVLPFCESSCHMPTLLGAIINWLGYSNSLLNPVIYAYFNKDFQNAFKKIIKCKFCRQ

Mus musculus = test: In vivo mouse forced swim test at 30 mg/kg, ip; format: functional, organism-based; parameters: dose 30 mg/kg
[4] = target: T2, 5-hydroxytryptamine receptor 1B (Homo sapiens, UniProt P28222); test: Intrinsic activity for 5HT1B receptor in FLIPR assay; format: functional
T2 sequence (P28222 whole entry): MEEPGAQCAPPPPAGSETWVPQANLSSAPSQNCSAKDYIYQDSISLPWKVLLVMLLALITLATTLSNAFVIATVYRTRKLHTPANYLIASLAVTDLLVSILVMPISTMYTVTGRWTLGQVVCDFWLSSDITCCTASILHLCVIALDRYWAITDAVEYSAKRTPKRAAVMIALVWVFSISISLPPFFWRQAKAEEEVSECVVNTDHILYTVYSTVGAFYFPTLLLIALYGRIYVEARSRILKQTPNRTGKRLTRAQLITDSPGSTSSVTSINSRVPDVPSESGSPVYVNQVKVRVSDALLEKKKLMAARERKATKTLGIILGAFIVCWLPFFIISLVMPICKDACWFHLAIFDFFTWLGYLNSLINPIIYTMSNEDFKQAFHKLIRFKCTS

[5] = target: T1, 5-hydroxytryptamine receptor 1A (Homo sapiens); test: Functional activity in [35S]GTP-gamma-S assay for 5HT1A receptor; conditions: filed as antagonist
[6] = target: 5-hydroxytryptamine receptor 5A (Homo sapiens, UniProt P47898); test: Inhibitory activity against 5HT5A receptor
5-hydroxytryptamine receptor 5A, sequence (P47898 whole entry): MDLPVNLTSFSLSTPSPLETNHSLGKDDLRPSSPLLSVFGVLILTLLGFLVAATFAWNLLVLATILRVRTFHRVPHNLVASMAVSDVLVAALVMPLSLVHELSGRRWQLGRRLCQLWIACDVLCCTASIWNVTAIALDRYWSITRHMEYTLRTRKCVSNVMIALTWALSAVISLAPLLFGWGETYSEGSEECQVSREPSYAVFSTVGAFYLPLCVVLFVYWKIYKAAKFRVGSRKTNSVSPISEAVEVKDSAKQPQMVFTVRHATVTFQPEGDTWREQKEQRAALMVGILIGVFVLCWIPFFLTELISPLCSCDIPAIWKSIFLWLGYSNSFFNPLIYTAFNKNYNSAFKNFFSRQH

[7] = target: 5-hydroxytryptamine receptor 2A (Homo sapiens, UniProt P28223); test: Inhibitory activity against 5HT2A receptor
5-hydroxytryptamine receptor 2A, sequence (P28223 whole entry): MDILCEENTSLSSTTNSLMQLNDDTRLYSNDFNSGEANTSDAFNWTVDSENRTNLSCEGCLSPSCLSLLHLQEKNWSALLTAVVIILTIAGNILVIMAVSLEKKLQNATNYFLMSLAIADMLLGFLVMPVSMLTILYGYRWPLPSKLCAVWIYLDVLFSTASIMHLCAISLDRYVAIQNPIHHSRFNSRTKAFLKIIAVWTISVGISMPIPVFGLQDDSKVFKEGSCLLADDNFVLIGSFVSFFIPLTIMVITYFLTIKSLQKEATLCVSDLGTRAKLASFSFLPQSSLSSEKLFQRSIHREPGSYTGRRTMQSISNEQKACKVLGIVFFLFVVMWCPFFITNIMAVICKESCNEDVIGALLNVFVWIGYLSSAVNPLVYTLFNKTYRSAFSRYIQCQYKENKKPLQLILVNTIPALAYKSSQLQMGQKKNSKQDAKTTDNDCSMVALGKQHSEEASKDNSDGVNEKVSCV

[8] = target: Sodium-dependent noradrenaline transporter (Homo sapiens) (UniProt P23975); test: Inhibitory activity against NET upto 10 uM
Sodium-dependent noradrenaline transporter (Homo sapiens), sequence (P23975 whole entry): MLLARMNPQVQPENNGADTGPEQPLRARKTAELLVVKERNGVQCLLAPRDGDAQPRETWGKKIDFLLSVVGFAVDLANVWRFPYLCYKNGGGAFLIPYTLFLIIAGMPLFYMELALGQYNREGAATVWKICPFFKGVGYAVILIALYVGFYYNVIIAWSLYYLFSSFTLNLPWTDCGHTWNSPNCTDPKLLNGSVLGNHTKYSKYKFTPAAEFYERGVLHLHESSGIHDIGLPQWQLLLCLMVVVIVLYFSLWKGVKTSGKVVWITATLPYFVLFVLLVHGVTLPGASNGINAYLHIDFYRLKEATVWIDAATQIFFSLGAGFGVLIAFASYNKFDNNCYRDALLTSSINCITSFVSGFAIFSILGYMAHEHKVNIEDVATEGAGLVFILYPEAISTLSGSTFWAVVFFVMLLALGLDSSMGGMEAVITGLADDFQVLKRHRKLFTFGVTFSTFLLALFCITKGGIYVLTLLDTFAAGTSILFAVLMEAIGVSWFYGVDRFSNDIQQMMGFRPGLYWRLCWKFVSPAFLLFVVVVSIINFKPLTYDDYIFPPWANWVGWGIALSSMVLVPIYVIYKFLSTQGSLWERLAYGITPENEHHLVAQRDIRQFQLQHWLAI

[9] = target: 5-hydroxytryptamine receptor 1B (Rattus norvegicus, UniProt P28564); test: Binding affinity for rat 5HT1B receptor
5-hydroxytryptamine receptor 1B (Rattus norvegicus, UniProt P28564), sequence (P28564 whole entry): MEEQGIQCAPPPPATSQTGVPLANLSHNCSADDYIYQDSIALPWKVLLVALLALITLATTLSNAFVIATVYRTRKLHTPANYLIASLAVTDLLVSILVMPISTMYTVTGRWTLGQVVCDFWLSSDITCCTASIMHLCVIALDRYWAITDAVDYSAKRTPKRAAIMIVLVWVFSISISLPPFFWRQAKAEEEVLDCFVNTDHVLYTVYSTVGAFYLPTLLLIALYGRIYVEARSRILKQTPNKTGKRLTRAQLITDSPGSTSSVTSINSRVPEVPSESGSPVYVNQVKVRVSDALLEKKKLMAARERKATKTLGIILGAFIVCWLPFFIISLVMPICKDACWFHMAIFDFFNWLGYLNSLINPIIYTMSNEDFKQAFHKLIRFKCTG

[10] = target: T3, 5-hydroxytryptamine receptor 1A (Homo sapiens, UniProt P08908); test: Displacement of [35S]GTP-gamma-S from human recombinant 5HT1A receptor; format: functional
T3 sequence (P08908 whole entry): T1 sequence (whole entry)

Rattus norvegicus [11] = species: Rattus norvegicus; test: Electrically stimulated [3H]5-HT release from rat brain cortical slices at 1 uM; format: functional, tissue-based
[12] = target: 5-hydroxytryptamine receptor 7 (Homo sapiens, UniProt P34969); test: Inhibitory activity against 5HT7 receptor
5-hydroxytryptamine receptor 7, sequence (P34969 whole entry): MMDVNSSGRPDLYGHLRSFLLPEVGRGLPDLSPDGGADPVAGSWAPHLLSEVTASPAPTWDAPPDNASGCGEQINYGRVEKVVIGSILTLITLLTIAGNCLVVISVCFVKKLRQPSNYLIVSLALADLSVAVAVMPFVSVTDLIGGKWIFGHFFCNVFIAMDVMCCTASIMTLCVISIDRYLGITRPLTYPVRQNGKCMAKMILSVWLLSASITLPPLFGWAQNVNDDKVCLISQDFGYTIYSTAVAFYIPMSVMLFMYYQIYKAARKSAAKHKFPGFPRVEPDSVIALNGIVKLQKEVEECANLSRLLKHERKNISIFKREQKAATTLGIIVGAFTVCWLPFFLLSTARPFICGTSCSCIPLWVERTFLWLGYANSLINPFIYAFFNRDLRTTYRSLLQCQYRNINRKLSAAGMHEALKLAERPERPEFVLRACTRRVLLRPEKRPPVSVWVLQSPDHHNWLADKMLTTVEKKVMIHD

[13] = target: T2, 5-hydroxytryptamine receptor 1B; test: Functional activity in FLIPR assay for 5HT1B receptor; conditions: filed as antagonist
[14] = target: T2, 5-hydroxytryptamine receptor 1B; test: Inhibitory activity against human recombinant 5HT1B receptor co-expressed with G-protein chimera Gqo5 in HEK293 cells by FLIPR; format: functional, cell-based
[15] = target: T4, Adrenergic receptor alpha-1 (Homo sapiens, UniProt P35348+P25100+P35368); test: Inhibitory activity against Adrenergic alpha-1 receptor; format: protein assay
T4 sequence (P35348 whole entry): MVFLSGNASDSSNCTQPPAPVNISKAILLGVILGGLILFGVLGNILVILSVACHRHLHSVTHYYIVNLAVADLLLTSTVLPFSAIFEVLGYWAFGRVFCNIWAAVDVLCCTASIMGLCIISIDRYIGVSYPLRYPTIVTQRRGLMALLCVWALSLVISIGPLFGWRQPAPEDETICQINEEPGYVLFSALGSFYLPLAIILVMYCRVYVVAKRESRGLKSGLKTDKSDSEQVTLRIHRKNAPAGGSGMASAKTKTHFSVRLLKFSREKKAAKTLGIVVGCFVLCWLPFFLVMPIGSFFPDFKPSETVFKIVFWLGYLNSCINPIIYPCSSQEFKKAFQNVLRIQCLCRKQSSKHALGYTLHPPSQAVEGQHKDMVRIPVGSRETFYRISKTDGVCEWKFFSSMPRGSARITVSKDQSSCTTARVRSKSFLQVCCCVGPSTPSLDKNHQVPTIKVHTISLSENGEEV
T4 sequence (P25100 whole entry): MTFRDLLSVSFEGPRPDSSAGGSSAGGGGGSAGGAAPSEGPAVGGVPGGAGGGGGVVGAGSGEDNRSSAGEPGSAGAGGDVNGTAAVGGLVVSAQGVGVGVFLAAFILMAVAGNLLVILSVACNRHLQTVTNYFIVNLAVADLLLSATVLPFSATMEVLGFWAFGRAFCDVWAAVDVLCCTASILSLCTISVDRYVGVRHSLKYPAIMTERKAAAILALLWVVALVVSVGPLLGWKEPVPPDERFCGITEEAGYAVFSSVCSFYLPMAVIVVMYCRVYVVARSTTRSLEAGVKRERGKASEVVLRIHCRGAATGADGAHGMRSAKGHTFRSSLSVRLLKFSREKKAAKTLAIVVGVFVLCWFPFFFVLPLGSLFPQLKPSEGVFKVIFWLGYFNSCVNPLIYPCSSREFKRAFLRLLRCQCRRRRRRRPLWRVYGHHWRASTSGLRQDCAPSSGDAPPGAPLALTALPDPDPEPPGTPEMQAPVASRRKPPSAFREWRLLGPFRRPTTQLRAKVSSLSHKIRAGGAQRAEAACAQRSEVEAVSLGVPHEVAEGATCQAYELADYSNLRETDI
T4 sequence (P35368 whole entry): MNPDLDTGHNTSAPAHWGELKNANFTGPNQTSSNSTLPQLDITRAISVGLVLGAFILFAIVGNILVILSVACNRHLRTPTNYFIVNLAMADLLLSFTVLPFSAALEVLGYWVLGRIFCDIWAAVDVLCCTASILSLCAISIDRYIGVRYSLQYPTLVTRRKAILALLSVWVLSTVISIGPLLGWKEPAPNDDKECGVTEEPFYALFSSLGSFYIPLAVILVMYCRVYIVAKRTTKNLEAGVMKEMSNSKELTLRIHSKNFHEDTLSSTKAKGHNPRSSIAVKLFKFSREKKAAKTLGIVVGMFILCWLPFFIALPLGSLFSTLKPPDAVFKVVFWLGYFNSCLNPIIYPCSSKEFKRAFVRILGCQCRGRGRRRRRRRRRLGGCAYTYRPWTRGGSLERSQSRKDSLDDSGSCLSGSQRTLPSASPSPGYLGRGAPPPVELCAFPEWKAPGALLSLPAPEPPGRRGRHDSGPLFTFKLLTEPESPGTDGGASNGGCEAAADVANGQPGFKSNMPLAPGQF

[16] = target: Sodium-dependent dopamine transporter (Homo sapiens) (UniProt Q01959); test: Inhibitory activity against DAT upto 10 uM
Sodium-dependent dopamine transporter (Homo sapiens), sequence (Q01959 whole entry): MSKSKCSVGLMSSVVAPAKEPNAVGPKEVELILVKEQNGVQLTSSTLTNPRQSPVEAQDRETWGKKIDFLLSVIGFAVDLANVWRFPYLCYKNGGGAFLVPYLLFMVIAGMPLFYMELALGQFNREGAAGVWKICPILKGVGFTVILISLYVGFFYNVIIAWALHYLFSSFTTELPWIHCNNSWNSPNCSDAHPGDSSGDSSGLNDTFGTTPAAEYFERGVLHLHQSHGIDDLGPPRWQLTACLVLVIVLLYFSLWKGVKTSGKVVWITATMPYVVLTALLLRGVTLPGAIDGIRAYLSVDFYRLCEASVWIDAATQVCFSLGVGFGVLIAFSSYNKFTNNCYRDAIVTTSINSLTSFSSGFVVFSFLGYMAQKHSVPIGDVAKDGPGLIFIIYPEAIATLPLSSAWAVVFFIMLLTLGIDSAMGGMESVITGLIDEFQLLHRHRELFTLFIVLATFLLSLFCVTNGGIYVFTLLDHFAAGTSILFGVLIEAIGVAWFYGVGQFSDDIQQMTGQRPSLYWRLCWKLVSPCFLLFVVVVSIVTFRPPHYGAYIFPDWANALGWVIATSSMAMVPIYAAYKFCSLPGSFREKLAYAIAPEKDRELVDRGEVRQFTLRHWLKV

[17] = target: Sodium-dependent serotonin transporter (Homo sapiens) (UniProt P31645); test: Inhibitory activity against SERT upto 10 uM
Sodium-dependent serotonin transporter (Homo sapiens), sequence (P31645 whole entry, looked up): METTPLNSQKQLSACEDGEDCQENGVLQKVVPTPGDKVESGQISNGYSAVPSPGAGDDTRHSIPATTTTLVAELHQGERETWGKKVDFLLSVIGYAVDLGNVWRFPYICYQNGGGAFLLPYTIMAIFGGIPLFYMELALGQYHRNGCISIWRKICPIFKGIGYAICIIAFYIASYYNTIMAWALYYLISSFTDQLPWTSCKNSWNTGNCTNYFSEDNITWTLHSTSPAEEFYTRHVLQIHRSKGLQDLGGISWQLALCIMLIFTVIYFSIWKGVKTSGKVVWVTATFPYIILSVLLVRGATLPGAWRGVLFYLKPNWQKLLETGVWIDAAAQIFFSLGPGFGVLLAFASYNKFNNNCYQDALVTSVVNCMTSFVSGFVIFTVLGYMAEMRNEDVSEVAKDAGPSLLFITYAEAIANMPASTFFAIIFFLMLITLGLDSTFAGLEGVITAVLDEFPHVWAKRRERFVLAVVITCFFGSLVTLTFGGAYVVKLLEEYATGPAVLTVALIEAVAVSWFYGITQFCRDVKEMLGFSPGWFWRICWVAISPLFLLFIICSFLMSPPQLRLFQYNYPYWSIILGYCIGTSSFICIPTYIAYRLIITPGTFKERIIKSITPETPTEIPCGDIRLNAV

SMILES: CN1CCc2c(sc3ncn(CCN4CCN(c5cncc6ccccc56)CC4)c(=O)c23)C1
- Activity (Rattus norvegicus [1]): Dose-dependent effect
- Ki (D(3) dopamine receptor): 1.18 nM
- Kp [2]: 10.2
- Emax [3]: 4%
- Activity (Mus musculus): inactive
- Emax [4]: 7%
- Activity [5]: Antagonist
- Ki [6]: > 10000 nM
- Ki [7]: 180 nM
- Activity [8]: inactive
- Ki [9]: 33.1 nM
- IC50 [10]: 316 nM
- Ki [10]: 4.7 nM
- Activity (Rattus norvegicus [11]): Dose-dependent effect
- Ki [12]: 520 nM
- Activity [13]: Antagonist
- IC50 [14]: 35 nM
- Ki [14]: 2.5 nM
- Ki [15]: 13.7 nM
- Activity [16]: inactive
- Activity [17]: inactive
